This is an account of results in patent EP0728480A1, “Use of ifenprodil for treatment of elevated intraocular pressure” (ROHTO PHARMACEUTICAL CO., LTD., priority 1995, dated 1996).

Molecules are shown by their SMILES. Counter-ions that a name gives are not always drawn.

The test system of this assay is rabbits with normal intraocular pressure. Description: Experiment 1: ocular hypotensive effect of eye drops (applanation pneumatonograph). It counts as in vivo, Male Dutch species coloured rabbits. Conditions: for Difference in IOP between the control and test eyes: 50 µl instilled. The method, then:
The ocular hypotensive effect of the eye drops of this invention was investigated in rabbits. The same experiment was also conducted using a representative β-adrenergic blocking agent, and its ocular hypotensive effect was compared with that of eye drops of this invention. Methods: According to the formulations described in Examples 1, 2 and 3, three kinds of eye drops respectively containing 0.5, 0.05 and 0.005% of the compound (1) were prepared. As a negative control, eye drops not containing compound (1), which is eye drops described in Reference Example below, were used. The positive control was commercially available eye drops containing timolol maleate (0.5% equivalent of free base) as an active ingredient. Male Dutch species coloured rabbits (body weight: ca. 2 kg) with normal intraocular pressure were used in the experiment. Each of the test solutions (three kinds of eye drops containing 0.5, 0.05 or 0.005% of ifenprodil) (50 µl) was instilled into one eye of each rabbit, and the control solution free of ifenprodil (50 µl), the eye drops described in Reference Example, into the fellow eye which served as a control. For each solution, six rabbits were used. After anesthesia of the corneal surface by instillating 5 µl of 0.4% oxybuprocaine hydrochloride, the intraocular pressure was measured using an applanation pneumatonograph (Alcon) before and after the instillation of the test solution and control solution. Measurement of intraocular pressure after the instillation was conducted with one-hour intervals until six hours - nine hours post-instillation.

Setting [1] is: eye drops 0.5%, one hour after instillation, difference from control eye.

On to `CC(C(O)c1ccc(O)cc1)N1CCC(Cc2ccccc2)CC1` (centres unmarked) [Compound (1), 2-(4-benzylpiperidino)-1-(4-hydroxyphenyl)-1-propanol], for which the IOP reduction result (eye drops 0.005%) was “produced IOP reduction which varies depending on concentration of compound (1)”. Further, the “Difference in IOP between the control and test eyes” value (“Difference” below) is, setting by setting: (eye drops 0.005% free base, 1 hr) -0.79 mmHg; (eye drops 0.005% free base, 2 hr) -0.75 mmHg; (eye drops 0.005% free base, 4 hr) -0.79 mmHg; (eye drops 0.005% free base, 6 hr) -0.17 mmHg; (eye drops 0.05% free base, 1 hr) -1.79 mmHg; (eye drops 0.05% free base, 2 hr) -0.96 mmHg. The “Difference” value is, setting by setting: (eye drops 0.05% free base, 4 hr) -0.67 mmHg; (eye drops 0.05% free base, 6 hr) -0.38 mmHg; (eye drops 0.5% free base, 1 hr) -2.67 mmHg; (eye drops 0.5% free base, 2 hr) -2.17 mmHg; (eye drops 0.5% free base, 4 hr) -1.17 mmHg; (eye drops 0.5% free base, 6 hr) -1.13 mmHg. In addition, the “average IOP reduction” value reads like this: (eye drops 0.05%, one hour after administration) 1.8 mmHg; under setting [1], 2.7 mmHg. Moreover, under “eye drops 0.5%”, the “duration of ocular hypotensive effect” value is reported as “retained for nine hours after instillation”. For the same compound, the “time of maximal IOP reduction” value (eye drops 0.5%) is given as “one hour after instillation”.
Regarding `CC(C)(C)NC[C@H](O)COc1nsnc1N1CCOCC1` [Timolol maleate, timolol maleate, reference compound], the “Difference” value by setting is: (eye drops 0.5% free base, 1 hr) -0.88 mmHg; (eye drops 0.5% free base, 2 hr) -0.58 mmHg; (eye drops 0.5% free base, 4 hr) -0.25 mmHg; (eye drops 0.5% free base, 6 hr) -0.13 mmHg. The “average IOP reduction” value by setting is: under setting [1], 0.9 mmHg; (eye drops 0.5%, two hours after administration) 0.6 mmHg.
